Measured values reported in US20260248894A1, “COMBINATION THERAPY FOR PRETERM INFANTS” (Oak Hill Bio Ltd, priority 2022, published 2026).
Counter-ions that a name gives are not always drawn. Like-named read-outs stand apart in the source and are kept apart here.

Tests used:
[1] = molecular target: T1, rhIGF-1/rhIGFBP-3 drug product (Homo sapiens, UniProt P05019+P17936, DEL119-195); assay: In vitro physical compatibility of test medications mixed with rhIGF-1/rhIGFBP-3 (visual observation, OD320, pH, osmolality); type: physicochemical; conditions: for visual observation (and OD320) upon mixing: mixture with rhIGF-1/rhIGFBP-3 drug product
T1 construct: purchased Takeda, Lexington, MA, USA

[2] = molecular target: T1, rhIGF-1/rhIGFBP-3 drug product; assay: Small-molecule chemical compatibility: small-molecule content post mixing by RP-HPLC-UV or ion chromatography; type: physicochemical; conditions: post mixing with rhIGF-1/rhIGFBP-3 drug product, last specified time point(s)
insulin [3] = conditions: cited from earlier work
[4] = molecular target: T1, rhIGF-1/rhIGFBP-3 drug product; assay: Protein-specific (mass spectrometry-based) analyses of rhIGF-1/rhIGFBP-3 chemical compatibility and the final compatibility decision; type: physicochemical
insulin [5] = conditions: no compatibility data available with insulin
[6] = mixed with rhIGF-1/rhIGFBP-3 drug product at representative clinical doses, room temperature

T1 sequence (P05019 49-118 limits assumed, stated change not applied): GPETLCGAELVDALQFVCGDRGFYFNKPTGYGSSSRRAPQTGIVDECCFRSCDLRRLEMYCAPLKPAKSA
T1 sequence (P17936 28-291, stated change not applied): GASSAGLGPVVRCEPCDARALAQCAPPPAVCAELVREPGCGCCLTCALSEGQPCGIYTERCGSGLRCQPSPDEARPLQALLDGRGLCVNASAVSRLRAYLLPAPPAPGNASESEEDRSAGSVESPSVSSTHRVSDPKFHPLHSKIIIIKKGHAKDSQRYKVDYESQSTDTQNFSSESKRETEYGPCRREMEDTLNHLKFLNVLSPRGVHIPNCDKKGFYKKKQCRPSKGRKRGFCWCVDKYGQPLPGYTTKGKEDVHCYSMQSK

Row | Compound | physical compatibility with rhIGF-1/rhIGFBP-3 ([1]; conditions and doses tested) | Physical compatibility [1, 6] | Chemical compatibility for small-molecule content (RP-HPLC) [2] | other results
1 | rhIGF-1/rhIGFBP-3 drug product: recombinant human protein complex of insulin-like growth factor-1 (IGF-1) and insulin-like growth factor binding protein-3 (IGFBP-3) | – | – | – | pH value of the unmixed product ([1]; not in the mixture): 5.5
2 | C[C@@H](O)[C@H]1C(=O)N2C(C(=O)O)=C(S[C@@H]3CN[C@H](C(=O)N(C)C)C3)[C@H](C)[C@H]12 [Meropenem] | considered incompatible | No | Yes (Chemical incompatibility was considered to be a loss of the small-molecule content of ~10% or more over the defined testing period) | pH change post mixing ([1]; mixture with rhIGF-1/rhIGFBP-3): Observed pH change of ~2.4 post mixing,
3 | Cc1ncc2n1-c1ccc(Cl)cc1C(c1ccccc1F)=NC2 [Midazolam, Midazolam hydrochloride] | – | – | – | Physical compatibility [1]: Yes; physical compatibility with rhIGF-1/rhIGFBP-3 [1]: physical compatibility was established; compatibility with insulin (insulin [3]): established
4 | CN[C@H](CC(C)C)C(=O)N[C@H]1C(=O)N[C@@H](CC(N)=O)C(=O)N[C@H]2C(=O)N[C@H]3C(=O)N[C@H](C(=O)N[C@H](C(=O)O)c4cc(O)cc(O)c4-c4cc3ccc4O)[C@H](O)c3ccc(c(Cl)c3)Oc3cc2cc(c3O[C@@H]2O[C@H](CO)[C@@H](O)[C@H](O)[C@H]2O[C@H]2C[C@](C)(N)[C@H](O)[C@H](C)O2)Oc2ccc(cc2Cl)[C@H]1O [Vancomycin hydrochloride] | – | – | – | Physical compatibility [1]: Yes; compatibility with insulin (insulin [3]): established
5 | CC(CCc1ccc(O)cc1)NCCc1ccc(O)c(O)c1 (stereo not shown) [Dobutamine hydrochloride] | considered incompatible | No | Yes (Chemical incompatibility was considered to be a loss of the small-molecule content of ~10% or more over the defined testing period) | visual observation (and OD320) upon mixing [1]: physical compatibility (no precipitation, no; final compatibility decision informed by protein-specific studies / sodium (meta)bisulfite in the formulation [4]: medication is considered incompatible
6 | CC1(C)S[C@@H]2[C@H](NC(=O)Cc3ccccc3)C(=O)N2[C@H]1C(=O)[O-].[K+] [Penicillin G, Penicillin G potassium] | considered incompatible | No | Yes (Chemical incompatibility was considered to be a loss of the small-molecule content of ~10% or more over the defined testing period) | pH shift ([1]; highest penicillin G dose of 125,000 Units/kg/30 min): pH shift (up to 1.3 pH units for the highest
7 | OC(Cn1cncn1)(Cn1cncn1)c1ccc(F)cc1F [Fluconazole] | physical compatibility was established | Yes | Yes (Chemical incompatibility was considered to be a loss of the small-molecule content of ~10% or more over the defined testing period) | expected reaction on the basis of theoretical evaluation and the solution pH (insulin [5]): a reaction is not expected
8 | NC[C@H](O)c1ccc(O)c(O)c1 [Norepinephrine bitartrate] | – | – | – | pH change post mixing (in words) [1]: Only the lowest dose was physically; physical compatibility with rhIGF-1/rhIGFBP-3 [1]: considered incompatible
9 | Cl.NCCc1ccc(O)c(O)c1 [Dopamine hydrochloride] | – | – | – | Physical compatibility [1]: No; pH change post mixing (in words) [1]: A dopamine dose-dependent physical change; physical compatibility with rhIGF-1/rhIGFBP-3 [1]: considered incompatible; effect on rhIGF-1/rhIGFBP-3 drug product in protein-specific analyses [4]: data demonstrated an impact on the rhIGF-
10 | Gentamicin | – | – | Yes (Chemical incompatibility was considered to be a loss of the small-molecule content of ~10% or more over the defined testing period) | –
11 | Cn1c(=O)c2c(ncn2C)n(C)c1=O.O=C(O)CC(O)(CC(=O)O)C(=O)O [Caffeine citrate] | – | – | – | Physical compatibility [1]: Yes^a; pH difference of mixed samples compared with the control [1]: demonstrated ~1.0 unit difference compared; physical compatibility with rhIGF-1/rhIGFBP-3 [1]: physical compatibility was established
12 | NS(=O)(=O)c1cc(C(=O)O)c(NCc2ccco2)cc1Cl [Furosemide] | considered incompatible | No | Yes (Chemical incompatibility was considered to be a loss of the small-molecule content of ~10% or more over the defined testing period) | time after mixing to cloudiness / turbidity ([1]; mixture with rhIGF-1/rhIGFBP-3): ≤ 30 min; visual observation (and OD320) upon mixing [1]: Cloudiness observed
13 | Insulin | physical compatibility was established | Yes | Yes (Chemical incompatibility was considered to be a loss of the small-molecule content of ~10% or more over the defined testing period) | –
14 | NCC[C@H](O)C(=O)N[C@@H]1C[C@H](N)[C@@H](O[C@H]2O[C@H](CN)[C@@H](O)[C@H](O)[C@H]2O)[C@H](O)[C@H]1O[C@H]1O[C@H](CO)[C@@H](O)[C@H](N)[C@H]1O.O=S(=O)(O)O.O=S(=O)(O)O [Amikacin sulfate] | considered incompatible | No | Yes (Chemical incompatibility was considered to be a loss of the small-molecule content of ~10% or more over the defined testing period) | decrease in pH of mixtures compared with controls ([1]; mixture with rhIGF-1/rhIGFBP-3): Mixtures demonstrated a decrease in pH of ~0.6 units
15 | CC1(C)S[C@@H]2[C@H](NC(=O)[C@H](N)c3ccccc3)C(=O)N2[C@H]1C(=O)O [Ampicillin sodium] | considered incompatible | No | Yes (Chemical incompatibility was considered to be a loss of the small-molecule content of ~10% or more over the defined testing period) | pH change post mixing (in words) ([1]; mixture with rhIGF-1/rhIGFBP-3): Observed change in pH of rhIGF-1/rhIGFBP-3
